According to patent publication US12060347B2 (BRISTOL-MYERS SQUIBB COMPANY, priority 2016, dated 2024):

Molecular target: T1, human PAR4 (Homo sapiens, UniProt Q96RI0)
T1 construct: expressed in transfected cells; host or cells: HEK293 PAR4 Clone 1.2A (BMS Arctic ID 383940)
T1 sequence (Q96RI0 18-385): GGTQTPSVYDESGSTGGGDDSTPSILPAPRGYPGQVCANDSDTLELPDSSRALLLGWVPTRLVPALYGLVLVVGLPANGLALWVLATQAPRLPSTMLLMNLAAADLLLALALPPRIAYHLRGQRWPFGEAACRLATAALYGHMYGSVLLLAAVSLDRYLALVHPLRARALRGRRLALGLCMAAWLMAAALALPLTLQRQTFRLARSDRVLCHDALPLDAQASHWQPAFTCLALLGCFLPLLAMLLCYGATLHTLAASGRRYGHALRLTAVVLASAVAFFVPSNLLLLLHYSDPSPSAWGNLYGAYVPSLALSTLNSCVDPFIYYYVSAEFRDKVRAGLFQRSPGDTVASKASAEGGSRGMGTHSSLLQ
Experiment: PAR4 FLIPR assay: antagonism of agonist-peptide-induced calcium mobilization in PAR4-expressing HEK293 cells
Format: cell-based
Details: H-Ala-Phe(4-F)-[…]NH2-induced intracellular calcium mobilization, 11-point curves

Row | SMILES | IC50 [nM]
1 | COc1cnc2c(-c3nc4cc(F)c(O[C@@H](C)[C@@H](C)OC(=O)Nc5ccc(C(N)=O)nc5)nc4s3)cc(C)cc2n1 [Example 754, (2R,3S)-3-((6-fluoro-2-(2-methoxy-7-methylquinoxalin-5-yl)thiazolo[5,4-b]pyridin-5-yl)oxy)butan-2-yl (6-carbamoylpyridin-3-yl)carbamate] | 0.3
2 | COc1cnc2c(-c3nc4c(Cl)c(F)c(OCCOC(=O)Nc5ccc(F)nc5)cc4s3)cc(C)cc2n1 [Example 304, 2-((4-chloro-5-fluoro-2-(2-methoxy-7-methylquinoxalin-5-yl)benzo[d]thiazol-6-yl)oxy)ethyl (6-fluoropyridin-3-yl)carbamate] | 2.3
3 | COc1cnc2c(-c3nc4cc(F)c(O[C@@H](C)[C@@H](C)OC(=O)Nc5cnc(CO)nc5)cc4s3)cc(C)cc2n1 [Example 502, (2R,3S)-3-((5-fluoro-2-(2-methoxy-7-methylquinoxalin-5-yl)benzo[d]thiazol-6-yl)oxy)butan-2-yl (2-(hydroxymethyl)pyrimidin-5-yl)carbamate] | 1.7
4 | CCc1cnc2c(-c3nc4c(C)cc(OCCNS(=O)(=O)c5ccc(F)cc5)cc4s3)cc(C)cc2n1 [Example 31, N-(2-((2-(2-ethyl-7-methylquinoxalin-5-yl)-4-methylbenzo[d]thiazol-6-yl)oxy)ethyl)-4-fluorobenzenesulfonamide] | 240
5 | COc1cnc2c(-c3nc4c(Cl)c(F)c(OCCOC(=O)Nc5ccc6[nH]ccc6c5)cc4s3)cc(C)cc2n1 [Example 360, 2-((4-chloro-5-fluoro-2-(2-methoxy-7-methylquinoxalin-5-yl)benzo[d]thiazol-6-yl)oxy)ethyl 1H-indol-5-ylcarbamate] | 160
6 | COc1cnc2c(-c3nc4cc(F)c(O[C@@H](C)[C@@H](C)OC(=O)Nc5cnc(C)cn5)cc4s3)cc(C)cc2n1 [Example 417, (2R,3S)-3-((5-fluoro-2-(2-methoxy-7-methylquinoxalin-5-yl)benzo[d]thiazol-6-yl)oxy)butan-2-yl (5-methylpyrazin-2-yl)carbamate] | 11
7 | COc1cc(C(O)C(C)(C)C)c2nc(-c3cc(C)cc4nc(OC)cnc34)sc2c1 (stereo not drawn) [Example 637, 1-(6-methoxy-2-(2-methoxy-7-methylquinoxalin-5-yl)benzo[d]thiazol-4-yl)-2,2-dimethylpropan-1-ol] | 2.1
8 | COc1cnc2c(-c3nc4cc(F)c(O[C@@H](C)COC(=O)Nc5cccnc5)cc4s3)cc(C)cc2n1 [Example 345, (S)-2-((5-fluoro-2-(2-methoxy-7-methylquinoxalin-5-yl)benzo[d]thiazol-6-yl)oxy)propyl pyridin-3-ylcarbamate] | 0.6
9 | COCc1cnc2c(-c3nc4ccc(OCCNS(=O)(=O)c5ccc(F)cc5)cc4s3)cc(C)cc2n1 [Example 107, 4-fluoro N-(2-(2-(2-(methoxymethyl)-7-methylquinoxalin-5-yl)benzo[d]thiazol-6-yloxy)ethyl)benzenesulfonamide] | 2.8
10 | COCc1cnc2c(-c3nc4c(C(O)CC(F)(F)F)cc(OC)cc4s3)cc(C)cc2n1 (stereo not drawn) [Example 173, 3,3,3-trifluoro-1-(6-methoxy-2-(2-(methoxymethyl)-7-methylquinoxalin-5-yl)benzo[d]thiazol-4-yl)propan-1-ol] | 2.7
11 | COc1cnc2c(-c3nc4cc(F)c(O[C@@H](C)[C@@H](C)OC(=O)Nc5ccnc(C(N)=O)c5)cc4s3)cc(C)cc2n1 [Example 453, (2R,3S)-3-((5-fluoro-2-(2-methoxy-7-methylquinoxalin-5-yl)benzo[d]thiazol-6-yl)oxy)butan-2-yl (2-carbamoylpyridin-4-yl)carbamate] | 0.6
12 | Cc1ncc(NC(=O)O[C@H](C)[C@H](C)Oc2cc3sc(-c4cc(Cl)cc5cc(OCC(F)F)cnc45)nc3cc2F)cn1 [Example 651, (2R,3S)-3-((2-(6-chloro-3-(2,2-difluoroethoxy)quinolin-8-yl)-5-fluorobenzo[d]thiazol-6-yl)oxy)butan-2-yl (2-methylpyrimidin-5-yl)carbamate] | 4.3
13 | CCOc1cnc2c(-c3nc4c(C)cc(OCCNS(=O)(=O)c5ccc(F)cc5)cc4s3)cc(C)cc2n1 [Example 30, N-(2-((2-(2-ethoxy-7-methylquinoxalin-5-yl)-4-methylbenzo[d]thiazol-6-yl)oxy)ethyl)-4-fluorobenzenesulfonamide] | 4.7
14 | COc1cnc2c(-c3nc4c(Cl)c(F)c(OC)cc4s3)cc(CO)c(F)c2n1 [Example 224, (8-(4-chloro-5-fluoro-6-methoxybenzo[d]thiazol-2-yl)-5-fluoro-3-methoxyquinoxalin-6-yl)methanol] | 15
15 | COCc1cnc2c(-c3nc4c(C)c(F)c(OCCOC(=O)Nc5ccc(F)nc5)cc4s3)cc(C)cc2n1 [Example 303, 2-((5-fluoro-2-(2-(methoxymethyl)-7-methylquinoxalin-5-yl)-4-methylbenzo[d]thiazol-6-yl)oxy)ethyl (6-fluoropyridin-3-yl) carbamate] | 0.9
16 | COCc1cnc2c(-c3nc4c(C(O)C5CC5)cc(OC)cc4s3)cc(C)cc2n1 (stereo not drawn) [Example 158, Cyclopropyl(6-methoxy-2-(2-(methoxymethyl)-7-methylquinoxalin-5-yl)benzo[d]thiazol-4-yl)methanol] | 0.7
17 | COc1c(F)cc(F)c2nc(-c3cc(C)cc4nc(OC(F)F)cnc34)sc12 [Example 13, 2-(2-(difluoromethoxy)-7-methylquinoxalin-5-yl)-4,6-difluoro-7-methoxybenzo[d]thiazole] | 3.5
18 | COc1cnc2c(-c3nc4cc(F)c(O[C@@H](C)[C@@H](C)OC(=O)Nc5cncc(F)c5)nc4s3)cc(C)cc2n1 [Example 714, (2R,3S)-3-((6-fluoro-2-(2-methoxy-7-methylquinoxalin-5-yl)thiazolo[5,4-b]pyridin-5-yl)oxy)butan-2-yl (5-fluoropyridin-3-yl)carbamate] | 1.2
19 | COc1cnc2c(-c3nc4cc(F)c(OC[C@@H](C)OC(=O)Nc5ccc(C#N)nc5)cc4s3)cc(C#N)cc2n1 [Example 818, (R)-1-((2-(7-cyano-2-methoxyquinoxalin-5-yl)-5-fluorobenzo[d]thiazol-6-yl)oxy)propan-2-yl (6-cyanopyridin-3-yl)carbamate] | 1.8

The remaining lines, values ahead:

Row | IC50 [nM] | SMILES
20 | 2 | COc1cncc2nc(-c3cc(C)cc4nc(OC(F)F)cnc34)sc12 [Example 24, 2-(2-(difluoromethoxy)-7-methylquinoxalin-5-yl)-7-methoxythiazolo[4,5-c]pyridine]
21 | 1 | COc1cnc2c(-c3nc4cc(F)c(O[C@@H](C)[C@@H](C)OC(=O)Nc5ccc(OCCO)nc5)cc4s3)cc(C)cc2n1 [Example 571, (2R,3S)-3-((5-fluoro-2-(2-methoxy-7-methylquinoxalin-5-yl)benzo[d]thiazol-6-yl)oxy)butan-2-yl (6-(2-hydroxyethoxy)pyridin-3-yl)carbamate]
22 | 0.4 | CCOc1cnc2c(-c3nc4cc(F)c(O[C@@H](C)[C@@H](C)OC(=O)Nc5cnc(C)nc5)cc4s3)cc(C)cc2n1 [Example 389, (2R,3S)-3-((2-(2-ethoxy-7-methylquinoxalin-5-yl)-5-fluorobenzo[d]thiazol-6-yl)oxy)butan-2-yl (2-methylpyrimidin-5-yl)carbamate]
23 | 2.4 | COCc1cnc2c(-c3nc4c(Cl)cc(OC)cc4s3)cccc2n1 [Example 212, 4-chloro-6-methoxy-2-(2-(methoxymethyl)quinoxalin-5-yl)benzo[d]thiazole]
24 | 17 | COc1cnc2c(-c3nc4cc(F)c(OC[C@@H](C)OC(=O)Nc5ccc6[nH]ccc6c5)cc4s3)cc(C)cc2n1 [Example 355, (R)-1-((5-fluoro-2-(2-methoxy-7-methylquinoxalin-5-yl)benzo[d]thiazol-6-yl)oxy)propan-2-yl 1H-indol-5-ylcarbamate]
25 | 4.4 | COc1cnc2c(-c3nc4cc(F)c(O[C@@H](C)[C@@H](C)OC(=O)Nc5ccc(CO)nc5)cc4s3)cc(C)cc2n1 [Example 499, (2R,3S)-3-((5-fluoro-2-(2-methoxy-7-methylquinoxalin-5-yl)benzo[d]thiazol-6-yl)oxy)butan-2-yl (6-(hydroxymethyl)pyridin-3-yl)carbamate]
26 | 1.7 | COCc1cnc2c(-c3nc4c(C(O)c5ccncc5)cc(OC)cc4s3)cc(C)cc2n1 (stereo not drawn) [Example 172, (6-methoxy-2-(2-(methoxymethyl)-7-methylquinoxalin-5-yl)benzo[d]thiazol-4-yl)(pyridin-4-yl)methanol]
27 | 1700 | Cc1cc(-c2nc3c(s2)CN(C(=O)OC(C)(C)C)CC3)c2ncc(OC(F)F)nc2c1 [Example 11, tert-butyl 2-(2-(difluoromethoxy)-7-methylquinoxalin-5-yl)-6,7-dihydrothiazolo[5,4-c]pyridine-5(4H)-carboxylate]
28 | 13 | COc1cnc2c(-c3nc4c(Cl)c(F)c(OCCOC(=O)NCc5ccncc5)cc4s3)cc(C)cc2n1 [Example 369, 2-((4-chloro-5-fluoro-2-(2-methoxy-7-methylquinoxalin-5-yl)benzo[d]thiazol-6-yl)oxy)ethyl (pyridin-4-ylmethyl)carbamate]
29 | 190 | COc1cnc2c(-c3cc4ccccc4o3)cc(C)cc2c1 [Example 177, 8-(benzofuran-2-yl)-3-methoxy-6-methylquinoline]
30 | 1.4 | COc1cnc2c(-c3nc4cc(F)c(OC[C@@H](C)OC(=O)Nc5ccc(C(N)=O)nc5)cc4s3)cc(C)cc2n1 [Example 434, (R)-1-((5-fluoro-2-(2-methoxy-7-methylquinoxalin-5-yl)benzo[d]thiazol-6-yl)oxy)propan-2-yl (6-carbamoylpyridin-3-yl)carbamate]
